Measured values published in publication PMC5962653 (Frontiers in Microbiology, 2018).
In brackets after ≈: the same amount, converted by molar mass. Read-outs that look alike come from different tables or passages of the source. Marks after values point to notes of the source that are not given here.

What was measured:
[1] = system: K. pneumoniae Kp07, VIM-1 producer; assay: MIC by broth microdilution (agar dilution for fosfomycin); type: cell-based, Klebsiella pneumoniae; settings: supplement table, strain KPc07; for MIC: Klebsiella pneumoniae; for SIR, classification according to EUCAST definitions: EUCAST 2016 breakpoints, fosfomycin by agar dilution
Description: (§1) Four genetically unrelated clinical isolates of CP-Kp were studied: Kp07, a VIM-1 ST 1603 clone producer ([Miro et al., 2013]); Kp21, which co-produced VIM-1 and the acquired AmpC type beta-lactamase DHA-1 ST 11 clone ([Miro et al., 2013]); Kp28, co-producing OXA-48 ST11 clone and the extended spectrum beta-lactamase (ESBL) CTX-M-15 ([Oteo et al., 2015]); and Kp29, co-producing KPC-3 ST512 clone with the broad spectrum beta-lactamases TEM-1 and SHV-11 ([Lopez-Cerero et al., 2014]), thereinafter VIM-1, VIM-1/DHA-1, OXA-48 plus CTX-M-15, and KPC-3 producers, respectively. Identification of these isolates was confirmed by a Microflex LT-MALDI Biotyper mass spectrometer (Bruker Daltonics GmbH, Bremen, Germany). The presence of carbapenemase genes, and genes coding for other beta-lactamases was confirmed by PCR and sequencing as described previously. The absence of genetic relation among the isolates was confirmed by PFGE analysis of chromosomal restriction fragments obtained after XbaI cleavage following the criteria of [Tenover et al. (1995)]. […] The antibiotic susceptibility profiles are included in the Supplementary Information.
(§2) MICs of antibiotics were determined by broth microdilution as recommended by the [Clinical and Laboratory Standards Institute [CLSI] (2012)], using Mueller Hinton broth II (MHB) (Becton Dickinson & Co., Sparks, MD, United States) and agar dilution method for fosfomycin. MIC results were interpreted according to the [European Committee on Antimicrobial Susceptibility Testing [EUCAST] (2016)]^1 breakpoints. Studies were performed in triplicate.

[2] = system: K. pneumoniae Kp21, VIM-1/DHA-1 producer; assay: as above; type: cell-based, Klebsiella pneumoniae; settings: supplement table, strain KPc21; for MIC: Klebsiella pneumoniae; for SIR, classification according to EUCAST definitions: EUCAST 2016 breakpoints, fosfomycin by agar dilution
Description: as §1, §2

[3] = system: K. pneumoniae Kp28, OXA-48 plus CTX-M-15 producer; assay: as above; type: cell-based, Klebsiella pneumoniae; settings: supplement table, strain KPc28; for MIC: Klebsiella pneumoniae; for SIR, classification according to EUCAST definitions: EUCAST 2016 breakpoints, fosfomycin by agar dilution
Description: as §1, §2

[4] = system: K. pneumoniae Kp29, KPC-3 producer; assay: as above; type: cell-based, Klebsiella pneumoniae; settings: for MIC: Klebsiella pneumoniae
Description: as §1, §2

[5] = system: K. pneumoniae OXA-48 plus CTX-M-15 producer; type: cell-based, Klebsiella pneumoniae; settings: colistin 0.5 mg/L (MIC), rifampin 2 mg/L, alone or combined; inoculum 1 × 10^6 cfu/mL, 37°C, samples 0-24 h; three experiments
Method: (§3) (2016)]. […] Tubes were incubated at 37°C, with shaking, and samples were taken at 0, 1, 3, 6, and 24 h, serially diluted and plated using a spiral platter (Eddy Jet, IUL S.A., Barcelona, Spain). Bacterial colonies were counted using an automatic counter (Flash & Go, IUL S.A., Barcelona, Spain) ([Pournaras et al., 2011]; [Souli et al., 2011]). Experiments were performed three times on separate occasions. […] Bactericidal activities of single antibiotics or combination were defined as a decrease ≥ 3 log10 cfu/mL from the starting inoculum ([Souli et al., 2009]). Studies were performed in triplicate.
(§4) The RIF concentration used for all strains was 2 mg/L. RIF, filled circles; CST, filled squares; combination of both antimicrobials, filled triangles.

[6] = system: K. pneumoniae VIM-1 producer; type: cell-based, Klebsiella pneumoniae; settings: colistin 0.5 mg/L (MIC), rifampin 2 mg/L, alone or combined; inoculum 1 × 10^6 cfu/mL, 37°C, samples 0-24 h; three experiments
Method: as §3, §4

[7] = system: K. pneumoniae VIM-1/DHA-1 producer; type: cell-based, Klebsiella pneumoniae; settings: colistin 2 mg/L (EUCAST breakpoint), rifampin 2 mg/L, alone or combined; inoculum 1 × 10^6 cfu/mL, 37°C, samples 0-24 h; three experiments
Method: as §3, §4

[8] = system: K. pneumoniae VIM-1 strain; type: in vivo; settings: CMS 20 mg/kg/8 h ip, rifampin 25 mg/kg/6 h ip, alone or combined
Method: (§5) A previously described murine peritoneal sepsis model was used ([Parra Millan et al., 2016]). Briefly, groups of un-anesthetized C57BL/6 mice were infected by ip injection of 0.5 mL of the Minimal Lethal Dose (MLD) of each strain, corresponding to (log10 cfu/mL): 8.97, 8.94 9.35, and 8.38 for VIM-1, VIM-1/DHA-1, OXA-48 plus CTX-M-15, and KPC-3 strains, respectively. Treatments were initiated 4 h post-inoculation. […] Afterward, mice were treated and monitored for 72 h. […] Samples were extracted and processed immediately after the death of mice; the survivor mice were sacrificed (sodium thiopental) at the 72 h. Aseptic thoracotomies were carried out, and blood samples were obtained for qualitative blood cultures; results were expressed as positive (≥1 cfu present in the plate) or negative. Spleens were aseptically extracted, weighed, and homogenized in sterile saline (Stomacher 80; Tekmar Co., Cincinnati, OH, United States) before quantitative cultures (log10 cfu/g) in Columbia agar with 5% sheep blood plates.
(§6) Mortality and bacteremia rates are expressed as percentages and bacterial tissue concentrations (log10 cfu/g) as means ±SD. The two-tailed Fisher’s test, analysis of variance (ANOVA), and the Dunnet and Tukey post hoc tests were used. A P < 0.05 was considered significant. The SPSS v22.0 statistical package was used (SPSS Inc).

[9] = system: K. pneumoniae VIM-1/DHA-1 strain; type: in vivo; settings: CMS 20 mg/kg/8 h ip, rifampin 25 mg/kg/6 h ip, alone or combined
Method: as §5, §6

[10] = system: K. pneumoniae OXA-48 plus CTX-M-15 strain; assay: Murine peritoneal sepsis model; type: in vivo, C57BL/6 mice infected with Klebsiella pneumoniae; settings: CMS 20 mg/kg/8 h ip, rifampin 25 mg/kg/6 h ip, alone or combined
Method: as §5, §6

[11] = system: K. pneumoniae OXA-48 plus CTX-M-15 strain; type: in vivo; settings: CMS 20 mg/kg/8 h ip, rifampin 25 mg/kg/6 h ip, alone or combined
Method: A previously characterized murine pneumonia model was used ([Pachon-Ibanez et al., 2010]; [Docobo-Perez et al., 2012]; [Parra Millan et al., 2016]) with the OXA-48 plus CTX-M-15 strain, as OXA-48 is the most prevalent carbapenemase in Spain nowadays ([Palacios-Baena et al., 2016]). Anesthetized mice were infected intratracheally, using 50 μl of a final inoculum of 8.18 log10 cfu/mL. Therapies were initiated 4 h post-infection and treatment groups and dosages were the same as in the peritoneal sepsis model. Mice were treated and monitored over 72 h. After death or sacrifice of the mice at 72 h, blood and lungs samples were aseptically obtained and processed as detailed above.
as §6

[12] = Serum pharmacokinetics in healthy mice; settings: single ip dose (CMS 20 mg/kg; rifampin 25 mg/kg), LC-MS/MS, PKSOLVER
Method: Mice were housed in an individually ventilated cage system under specific pathogen-free conditions, and water and food supplied ad libitum. […] All procedures were performed under sodium thiopental (B. Braun Medical S.A., Spain) anesthesia, and all efforts were made to minimize suffering.
Blood samples were immediately centrifuged (4500 rpm, 15 min at 4°C), and serum samples stored at -80°C until the analysis. Both serum free and total antibiotic concentrations were measured using HPLC-tandem mass spectrometry (LC-MS/MS) ([Waters et al., 2008]; [Gobin et al., 2010]). Free fractions of the drugs were calculated as described previously ([Waters et al., 2008]; [Gonzalez et al., 2013]; [Cheah et al., 2015]).

[13] = broth microdilution, read-out: MIC
[14] = agar dilution, read-out: MIC (agar dilution method)
[15] = supplement table, strain KPc29, EUCAST 2016 breakpoints, fosfomycin by agar dilution
[16] = 72 h, from 4 h post-inoculation
[17] = qualitative blood cultures at death or 72 h

SMILES: NCC[C@H](O)C(=O)N[C@@H]1C[C@H](N)[C@@H](O[C@H]2O[C@H](CN)[C@@H](O)[C@H](O)[C@H]2O)[C@H](O)[C@H]1O[C@H]1O[C@H](CO)[C@@H](O)[C@H](N)[C@H]1O [Amikacin]
- MIC [1, 13]: 1 µg/mL (≈ 1.71 µM)
- SIR, classification according to EUCAST definitions [1]: S
- MIC [2, 13]: 4 µg/mL (≈ 6.83 µM)
- SIR, classification according to EUCAST definitions [2]: S
- MIC [3, 13]: 1 µg/mL (≈ 1.71 µM)
- SIR, classification according to EUCAST definitions [3]: S
- SIR, classification according to EUCAST definitions [4]: R
- MIC [4]: > 32 µg/mL

SMILES: C[C@@H]1O[C@@H]1P(=O)(O)O [Fosfomycin]
- MIC [1, 14]: 8 µg/mL (≈ 57.9 µM)
- SIR, classification according to EUCAST definitions [1]: S
- MIC [2, 14]: 8 µg/mL (≈ 57.9 µM)
- SIR, classification according to EUCAST definitions [2]: S
- MIC [3, 14]: 32 µg/mL (≈ 232 µM)
- SIR, classification according to EUCAST definitions [3]: S
- MIC ([4]; supplement table, strain KPc29, agar dilution, read-out: MIC (agar dilution method)): 64 µg/mL (≈ 464 µM)
- SIR, classification according to EUCAST definitions [4, 15]: R

SMILES: CNC(C)C1CCC(N)C(OC2C(N)CC(N)C(OC3OCC(C)(O)C(NC)C3O)C2O)O1 (stereo not drawn) [Gentamicin]
- MIC [1, 13]: 4 µg/mL (≈ 8.38 µM)
- SIR, classification according to EUCAST definitions [1]: I
- MIC [2, 13]: 2 µg/mL (≈ 4.19 µM)
- SIR, classification according to EUCAST definitions [2]: S
- MIC [3, 13]: 0.5 µg/mL (≈ 1.05 µM)
- SIR, classification according to EUCAST definitions [3]: S
- SIR, classification according to EUCAST definitions [4, 15]: S

SMILES: C[C@@H](O)[C@H]1C(=O)N2C(C(=O)O)=C(S[C@@H]3CN[C@H](C(=O)N(C)C)C3)[C@H](C)[C@H]12 [Meropenem]
- MIC [1, 13]: 2 µg/mL (≈ 5.22 µM)
- SIR, classification according to EUCAST definitions [1]: S
- MIC [2, 13]: 16 µg/mL (≈ 41.7 µM)
- SIR, classification according to EUCAST definitions [2]: R
- MIC [3, 13]: 2 µg/mL (≈ 5.22 µM)
- SIR, classification according to EUCAST definitions [3]: S
- MIC [4]: > 32 µg/mL
- SIR, classification according to EUCAST definitions [4, 15]: R

SMILES: CO[C@H]1/C=C/O[C@@]2(C)Oc3c(C)c(O)c4c(O)c(c(/C=N/N5CCN(C)CC5)c(O)c4c3C2=O)NC(=O)/C(C)=C\C=C\[C@H](C)[C@H](O)[C@@H](C)[C@@H](O)[C@@H](C)[C@H](OC(C)=O)[C@@H]1C [Rifampin, rifampin]
- Bactericidal activity in time-kill curves (decrease ≥ 3 log10 cfu/mL from the starting inoculum) [5]: did not show bactericidal activity
- Bactericidal activity in time-kill curves (decrease ≥ 3 log10 cfu/mL from the starting inoculum) [6]: did not show bactericidal activity
- Bactericidal activity in time-kill curves (decrease ≥ 3 log10 cfu/mL from the starting inoculum) [7]: did not show bactericidal activity
- Mice mortality (%) [8, 16]: 100%
- Bacteremia (%) [8, 17]: 100%
- Mice mortality (%) [9, 16]: 100%
- Log10 cfu/g spleen (mean ±SD) ([9]; ip MLD 8.94 log10 cfu/mL, from 4 h post-inoculation, 72 h, at death or 72 h, SD): 9.68 ± 0.09 log10 cfu/g
- Bacteremia (%) [9, 17]: 100%
- Mice mortality (%) [10, 16]: 100%
- Log10 cfu/g spleen (mean ±SD) ([10]; ip MLD 9.35 log10 cfu/mL, from 4 h post-inoculation, 72 h, at death or 72 h, SD): 8.24 ± 0.76^c log10 cfu/g
- Bacteremia (%) [10, 17]: 100%
- Bacteremia (%) ([11]; blood cultures at death or 72 h): 20%
- Log10 cfu/g lung (mean ±SD) ([11]; intratracheal 50 μl of 8.18 log10 cfu/mL, from 4 h post-infection, 72 h, at death or 72 h, SD): 3.07 ± 1.63^a log10 cfu/g
- AUC0-24, free drug in serum (fAUC0-24) ([12]; free (fCST, fRIF)): 44.14 mg⋅h/L
- Cmax, free drug in serum ([12]; free (fCST, fRIF), sets of three mice): 2900 ng/mL
- AUC0-24, total drug in serum ([12]; total (tCST, tRIF)): 1103.58 mg⋅h/L
- Cmax, total drug in serum ([12]; total (tCST, tRIF), sets of three mice): 72580 ng/mL
